Measurements from article PMC10400924 (The Journal of Biological Chemistry, 2023).
Where two headings read alike, the source gives them in different places.

Tests used:
IFNγR1 [1] = target: T1, IFNγR1 (Homo sapiens, UniProt P15260); assay: biochemical
Target sequence in this assay (P15260 18-489 limits assumed): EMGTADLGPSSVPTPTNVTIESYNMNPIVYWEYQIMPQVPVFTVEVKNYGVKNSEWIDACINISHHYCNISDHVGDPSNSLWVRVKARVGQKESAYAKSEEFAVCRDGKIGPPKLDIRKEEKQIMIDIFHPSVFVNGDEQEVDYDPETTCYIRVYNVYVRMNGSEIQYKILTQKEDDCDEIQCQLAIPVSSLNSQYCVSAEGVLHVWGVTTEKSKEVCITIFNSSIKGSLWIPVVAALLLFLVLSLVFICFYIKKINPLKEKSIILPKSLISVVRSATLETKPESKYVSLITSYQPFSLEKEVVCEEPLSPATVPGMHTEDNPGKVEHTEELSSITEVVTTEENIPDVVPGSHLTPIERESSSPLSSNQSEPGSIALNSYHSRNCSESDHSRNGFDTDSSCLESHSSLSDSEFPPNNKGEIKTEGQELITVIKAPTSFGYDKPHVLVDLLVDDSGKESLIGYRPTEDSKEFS

IFNγR1 [2] = target: T1, IFNγR1; settings: 10 μM CF, 3 h, intact NK92 cells
Target sequence in this assay (P15260 18-489): as the sequence (P15260 18-489 limits assumed) above

[3] = target: interferon γ receptor 1 protein (immobilised for SPR) (UniProt P15260); assay: SPR
[4] = target: interferon γ receptor 1 protein (immobilised for SPR) (UniProt P15260); assay: SPR; remark: listed apart in the source

Chain of interferon γ receptor 1 protein (immobilised for SPR) (P15260 18-489): as the sequence (P15260 18-489 limits assumed) above
Chain of interferon γ (P01579 24-161): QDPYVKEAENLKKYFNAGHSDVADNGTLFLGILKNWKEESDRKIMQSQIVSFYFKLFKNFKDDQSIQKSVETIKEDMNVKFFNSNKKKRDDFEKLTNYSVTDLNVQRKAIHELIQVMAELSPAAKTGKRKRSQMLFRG

| Kd (IFNγR1 [1]) | Kd [3] | Kd [4] | Molecule | thermal stability (CETSA) (IFNγR1 [2]) |
| --- | --- | --- | --- | --- |
| 500 nM |  |  | COc1cc(/C=C/C(=O)O[C@H]2CC[C@]34C[C@]35CC[C@]3(C)[C@@H]([C@H](C)CCC=C(C)C)CC[C@@]3(C)[C@@H]5CC[C@H]4C2(C)C)ccc1O [CF, Cycloartenyl ferulate] | When treated with CF, the thermal stability of IFNγR1 was significantly increased |
|  | 2.8 nM | 4.5 nM | interferon γ (from UniProt P01579 24-161) (ligand) |  |
